The record followed here is patent US10441663B2, “Methods for treating cancer” (Bicycle Therapeutics Limited, priority 2016, dated 2019).

*1 amine or outer side, *2 acyl side, *3 side chain or, on linkers, in order; H or OH if unused. Where a SMILES comes first, the peptide text is derived from it. Bridges are numbered along the chain shown (N, C = ends). [ ]: non-standard residue; d: D form. The star is where a group is joined. X1 = COc1cc2cc(c1Cl)N(C)C(=O)C[C@H](OC(=O)[C@H](C)N(C)C(=O)CCSSC(C)CCC(=O)*)[C@]1(C)O[C@H]1[C@H](C)[C@@H]1C[C@@](O)(NC(=O)O1)[C@H](OC)/C=C/C=C(\C)C2; 1Nal = N[C@@H](Cc1cccc2ccccc12)C(=O)O; TBMB = c1c(C[*:1])cc(C[*:3])cc1C[*:2]; Tle = CC(C)(C)[C@H](N)C(=O)O; βAla = NCCC(=O)O; Sar = CNCC(=O)O

One data set has as its system HT1080 cell line. In words: In vitro cytotoxicity, ATP endpoint assay after 72 hours incubation. In kind it is cell-based. The following applies: HT-1080 cells. As to the method: To evaluate the in vitro cytotoxicity of BT1718 and BT1721 in an HT1080 cell line using an ATP endpoint assay after 72 hours incubation.
Cells were seeded in 96 well plates (75 μl/well, HT1080=7500−15000 cell/well) and incubated overnight at 37° C.+5% CO2.
The day after cell seeding, serial dilutions (1:5) of BT1718 and BT1721 were prepared in DMSO and diluted 1:71 in cell culture media to give 4× final concentrations. Twenty five μl/well was added to the cells (2 μM or 5 μM top final concentration of BT1718 and 2 μM or 5 μM top final concentration of BT1721, <0.6% final DMSO).
Cells were 30-50% confluent upon dosing. Control wells containing 5 μM final concentration of staurosporine (positive control), lysis buffer (1% NP40, 20 mM Tris pH8, 137 mM NaCl, 10% glycerol, 2 mM EDTA, 1 mM Na Orthovanadate, 10 μg/ml leupeptin, 10 μg/ml aprotinin) positive control or media (negative control), were also included. Plates were sealed with gas permeable seals and incubated at 37° C.+5% CO2 for 72 hours. No wash steps were performed.
After a total of 72 hours after dosing, ATPLite reagent (Perkin Elmer) was equilibrated to room temperate and reconstituted in the supplied buffer as per the manufacturer's instructions. One hundred μl 1× detection reagent was added per well. Plates were sealed, protected from light and shaken gently for 20 minutes to ensure complete cell lysis before luminescence was read using a BMG Pherastar FS plate reader. […] Data was analysed using GraphPad Prism. Non-linear regression fit was used to calculate a relative IC50 for each toxic agent: Y=Bottom+(Top−Bottom)/(1+10^((Log Ic50−X)*HillSlope)) where the IC50 is defined as 50% of the total cell kill achieved at the top concentration of toxin.

The target of another data set is MT1-MMP (Homo sapiens, UniProt P50281). In words: Fluorescence polarisation competition binding. As to the method:
By means of comparison, a non-reducible BDC was prepared, BT1721, which includes a non-reducible maleimide thioether linkage which is […].
(In general: Fluorescence polarisation rises when a labelled molecule tumbles more slowly, as on binding a larger partner.)

For data set [1], the system named is LU-01-0251 non-small-cell lung carcinoma (NSCLC) PDX model. Briefly: Efficacy in LU-01-0251 NSCLC PDX model (high MT1-expressing, docetaxel sensitive). In kind it is in vivo, Balb/C nude mice. From the text: The objective of the project is to evaluate the in vivo therapeutic efficacy of test articles in the LU-01-0251 non-small-cell lung carcinoma (NSCLC) PDX model. LU-01-0251 is a high MT1-expressing NSCLC that is docetaxel sensitive.
Each mouse was inoculated subcutaneously at the right flank with certain kind of tumor fragment (30 mm3) for tumor development. The treatments started when the average tumor volume reaches approximately 150-200 mm^3. The test article administration and the animal numbers in each group are shown in Table 40 which details the experimental design.
Treatment was given until the control tumors reached an average of 1000 mm^3.
Before commencement of treatment all animals will be weighed and the tumor volumes will be measured. Since the tumor volume can affect the effectiveness of any given treatment, mice will be assigned into groups using randomized block design based upon their tumor volumes.
The protocol and any amendment(s) or procedures involving the care and use of animals in this study will be reviewed and approved prior to conduct. […] At the time of routine monitoring, the animals will be checked for any effects of tumor growth and treatments on normal behavior such as mobility, food and water consumption, body weight gain/loss (body weights will be measured twice weekly), eye/hair matting and any other abnormal effect. Death and observed clinical signs will be recorded on the basis of the numbers of animals within each subset.
The major endpoint is to see if the tumor growth can be delayed or mice can be cured. Tumor sizes will be measured twice weekly in two dimensions using a caliper and the volume will be expressed in mm^3 using the formula: V=0.5 a×b^2 where a and b are the long and short diameters of the tumor, respectively. […] T-C is calculated with T as the median time (in days) required for the treatment group tumors to reach a predetermined size (e.g., 1.000 mm^3), and C is the median time (in days) for the control group tumors to reach the same size. […]
TGI is calculated for each group using the formula. […]

A word on the IC50: it is the point on the concentration scale where inhibition reaches its midpoint. By Ki is commonly meant the dissociation constant of the complex between target and ligand, obtained from inhibition or displacement.

In the data set with HT1080 cell line (ATP endpoint), `COc1cc2cc(c1Cl)N(C)C(=O)C[C@H](OC(=O)[C@H](C)N(C)C(=O)CCSSC(C)CCC(=O)NCCC(=O)N(C)CC(=O)N(C)CC(=O)N(C)CC(=O)N(C)CC(=O)N(C)CC(=O)N(C)CC(=O)N(C)CC(=O)N(C)CC(=O)N(C)CC(=O)N(C)CC(=O)N[C@@H](C)C(=O)N[C@H]1CSCc3cc4cc(c3)CSC[C@H](NC(=O)[C@@H](C)NC(=O)[C@H](Cc3cccc5ccccc35)NC(=O)[C@H](CCC(=O)O)NC(=O)[C@H](CC(N)=O)NC(=O)[C@@H](C)NC1=O)C(=O)N[C@@H](CCC(=O)O)C(=O)N[C@@H](CC(=O)O)C(=O)N[C@@H](Cc1ccccc1)C(=O)N[C@@H](Cc1ccc(O)cc1)C(=O)N[C@@H](CC(=O)O)C(=O)N[C@@H](C(C)(C)C)C(=O)N[C@H](C(N)=O)CSC4)[C@]1(C)O[C@H]1[C@H](C)[C@@H]1C[C@@](O)(NC(=O)O1)[C@H](OC)/C=C/C=C(\C)C2` (stereo partly drawn) [BT1718] ({X1-βAla}-[Sar][Sar][Sar][Sar][Sar][Sar][Sar][Sar][Sar][Sar]AC[dA]NE[1Nal][dA]CEDFYD[Tle]C-NH2; linker 12-18-25 via TBMB (inferred)) registered an IC50 of 1 nM. The “relative cytotoxic activity versus BT1721” value in the data set on HT1080 cell line is reported as “approximately ten-fold more active”. This compound had a Ki at MT1-MMP of 0.9 nM. Moreover, the tumor response result is “tumor stasis” in data set [1] (3 mg/kg biw) and “tumor eradication” in data set [1] (10 mg/kg biw). Moreover, in data set [1] (10 mg/kg biw), the “relapse after cessation of dosing” value is reported as “lack of relapse”.
